Paper PMC11358582, “Discovery of a potential bladder cancer inhibitor CHNQD-01281 by regulating EGFR and promoting infiltration of cytotoxic T cells” (Marine Life Science & Technology, 2024)

Key:
Test in all cases: MTT cell proliferation assay
Type in all cases: cell-based, human
BEL-7402 cells = test system: BEL-7402 cells
Procedure: (§1) Human tumor cell lines Eca-109, BEL-7402, BxPC-3, HCT-116, HT-29, T24, HCT-8, SGC-7901, DLD-1, TE-1, BT-549, MGC-803 and human hepatocyte cell line L-02 were cultured in Roswell Park Memorial Institute (RPMI) 1640. HuH-7 and SW-480 were cultured in Dulbecco’s modified Eagle’s medium (DMEM). J82, HepG2, Hela, U87 were cultured in Minimum Essential Medium (MEM). Murine bladder cancer cell line, MB49, was cultured in DMEM. The above-mentioned culture medium was provided by GIBCO (Grand Island, USA), contained 10% fetal bovine serum (PAN, Germany), 10 mg/mL of streptomycin, and 10 kU/mL penicillin (Beyotime, China).
(§2) Cells were seeded in 96-well plates and incubated with indicated concentrations of CHNQD-01281 for indicated periods. Next, medium was discarded and MTT (5 mg/mL) was added to each well. The cells were incubated at 37 °C for another 4 h. After that, supernatant was discarded, and DMSO was added and incubated at 37 °C for 15 min. Finally, absorbance was measured at 570 nm (Molecular Devices, USA).
(§3) To investigate whether CHNQD-01281 had selective inhibitory effect on cancer cell lines, a variety of human tumor cell lines were assayed by MTT, such as bladder cancer cell lines (J82 and T24), colorectal cancer cell lines (HCT-116, HT-29, HCT-8, DLD-1 and SW-480), cervical cancer cell line (Hela), esophageal cancer cell lines (TE-1 and Eca-109), breast cancer cell line (BT-549), gastric carcinoma cell lines (MGC-803 and SGC-7901), glioma cell line (U87), pancreatic carcinoma cell line (BxPC-3) and hepatocellular carcinoma cell lines (Hep G2, BEL-7402 and HuH-7) (Fig. 2A).

BT-549 cells = test system: BT-549 cells
Procedure: as §1, §2, §3

BxPC-3 cells = test system: BxPC-3 cells
Procedure: as §1, §2, §3

DLD-1 cells = test system: DLD-1 cells
Procedure: as §1, §2, §3

Eca-109 cells = test system: Eca-109 cells
Procedure: as §1, §2, §3

HCT-116 cells = test system: HCT-116 cells
Procedure: as §1, §2, §3

HCT-8 cells = test system: HCT-8 cells
Procedure: as §1, §2, §3

HT-29 cells = test system: HT-29 cells
Procedure: as §1, §2, §3

Hela cells = test system: Hela cells
Procedure: as §1, §2, §3

Hep G2 cells = test system: Hep G2 cells
Procedure: as §1, §2, §3

HuH-7 cells = test system: HuH-7 cells
Procedure: as §1, §2, §3

J82 cells = test system: J82 cells
Procedure: as §1, §2, §3

MGC-803 cells = test system: MGC-803 cells
Procedure: as §1, §2, §3

SGC-7901 cells = test system: SGC-7901 cells
Procedure: as §1, §2, §3

SW-480 cells = test system: SW-480 cells
Procedure: as §1, §2, §3

T24 cells = test system: T24 cells
Procedure: as §1, §2, §3

TE-1 cells = test system: TE-1 cells
Procedure: as §1, §2, §3

U87 cells = test system: U87 cells
Procedure: as §1, §2, §3

C[C@H]1CCC/C=C/[C@@H]2C[C@H](O)C[C@H]2[C@H](OC(=O)/C=C/c2cccnc2)/C=C/C(=O)O1 [CHNQD-01281, Brefeldin A 4-O-3-(pyridin-3-yl) acrylate]
IC90 (BEL-7402 cells; Homo sapiens, BEL-7402, MTT): 820 nM
IC50 (BEL-7402 cells; Homo sapiens, BEL-7402, MTT, 72 h): 260 nM
SI (selectivity index) (BEL-7402 cells; L-02 versus BEL-7402): 4.46
IC90 (BT-549 cells; Homo sapiens, BT-549, MTT): > 1000 nM
IC50 (BT-549 cells; Homo sapiens, BT-549, MTT, 72 h): 640 nM
SI (selectivity index) (BT-549 cells; L-02 versus BT-549): 1.81
IC90 (BxPC-3 cells; Homo sapiens, BxPC-3, MTT): 350 nM
IC50 (BxPC-3 cells; Homo sapiens, BxPC-3, MTT, 72 h): 180 nM
SI (selectivity index) (BxPC-3 cells; L-02 versus BxPC-3): 6.44
IC90 (DLD-1 cells; Homo sapiens, DLD-1, MTT): 640 nM
IC50 (DLD-1 cells; Homo sapiens, DLD-1, MTT, 72 h): 340 nM
SI (selectivity index) (DLD-1 cells; L-02 versus DLD-1): 3.41
IC90 (Eca-109 cells; Homo sapiens, Eca-109, MTT): > 1000 nM
IC50 (Eca-109 cells; Homo sapiens, Eca-109, MTT, 72 h): 540 nM
SI (selectivity index) (Eca-109 cells; L-02 versus Eca-109): 2.15
IC90 (HCT-116 cells; Homo sapiens, HCT-116, MTT): 640 nM
IC50 (HCT-116 cells; Homo sapiens, HCT-116, MTT, 72 h): 350 nM
SI (selectivity index) (HCT-116 cells; L-02 versus HCT-116): 3.31
IC90 (HCT-8 cells; Homo sapiens, HCT-8, MTT): 440 nM
IC50 (HCT-8 cells; Homo sapiens, HCT-8, MTT, 72 h): 170 nM
SI (selectivity index) (HCT-8 cells; L-02 versus HCT-8): 6.82
IC90 (HT-29 cells; Homo sapiens, HT-29, MTT): > 1000 nM
IC50 (HT-29 cells; Homo sapiens, HT-29, MTT, 72 h): 370 nM
SI (selectivity index) (HT-29 cells; L-02 versus HT-29): 3.14
IC90 (Hela cells; Homo sapiens, Hela, MTT): 780 nM
IC50 (Hela cells; Homo sapiens, Hela, MTT, 72 h): 190 nM
SI (selectivity index) (Hela cells; L-02 versus Hela): 6.11
IC90 (Hep G2 cells; Homo sapiens, HepG2, Hep G2, MTT): > 1000 nM
IC50 (Hep G2 cells; Homo sapiens, HepG2, Hep G2, MTT, 72 h): 420 nM
SI (selectivity index) (Hep G2 cells; L-02 versus Hep G2): 2.76
IC90 (HuH-7 cells; Homo sapiens, HuH-7, MTT): > 1000 nM
IC50 (HuH-7 cells; Homo sapiens, HuH-7, MTT, 72 h): 510 nM
SI (selectivity index) (HuH-7 cells; L-02 versus HuH-7): 2.27
inhibition at 1 µM (J82 cells; Homo sapiens, J82, 1 µmol/L (highest concentration), 24 h): < 50%
IC90 (J82 cells; Homo sapiens, J82, MTT): 400 nM
IC50 (J82 cells; Homo sapiens, J82, MTT, 72 h): 81 nM
SI (selectivity index) (J82 cells; L-02 versus J82): 14.32
IC90 (MGC-803 cells; Homo sapiens, MGC-803, MTT): > 1000 nM
IC50 (MGC-803 cells; Homo sapiens, MGC-803, MTT, 72 h): 690 nM
SI (selectivity index) (MGC-803 cells; L-02 versus MGC-803): 1.68
IC90 (SGC-7901 cells; Homo sapiens, SGC-7901, MTT): 750 nM
IC50 (SGC-7901 cells; Homo sapiens, SGC-7901, MTT, 72 h): 340 nM
SI (selectivity index) (SGC-7901 cells; L-02 versus SGC-7901): 3.41
IC90 (SW-480 cells; Homo sapiens, SW480, SW-480, MTT): > 1000 nM
IC50 (SW-480 cells; Homo sapiens, SW480, SW-480, MTT, 72 h): 730 nM
SI (selectivity index) (SW-480 cells; L-02 versus SW-480): 1.59
inhibition at 0.125 µM (T24 cells; Homo sapiens, T-24, T24, 0.125 µmol/L, 120 h, read-out: inhibition of growth): ~100%
inhibition at 1 µM (T24 cells; Homo sapiens, T-24, T24, 1 µmol/L (highest concentration), 24 h): < 50%
IC90 (T24 cells; Homo sapiens, T-24, T24, MTT): 300 nM
IC50 (T24 cells; Homo sapiens, T-24, T24, MTT, 72 h): 79 nM
SI (selectivity index) (T24 cells; L-02 versus T24): 14.68
IC90 (TE-1 cells; Homo sapiens, TE-1, MTT): > 1000 nM
IC50 (TE-1 cells; Homo sapiens, TE-1, MTT, 72 h): 620 nM
SI (selectivity index) (TE-1 cells; L-02 versus TE-1): 1.87
IC90 (U87 cells; Homo sapiens, U-87 MG, U87, MTT): > 1000 nM
IC50 (U87 cells; Homo sapiens, U-87 MG, U87, MTT, 72 h): 650 nM
SI (selectivity index) (U87 cells; L-02 versus U87): 1.78
